Assays:
Experiment in all cases: relative viability (nuclei count vs DMSO), 5 days (fraction); higher = more cells survive
SGI-1776 + OSI-027 = compound: CN1CCC(CNc2ccc3ncc(-c4cccc(OC(F)(F)F)c4)n3n2)CC1 [SGI-1776] + COc1cccc2cc(-c3nc([C@H]4CC[C@H](C(=O)O)CC4)n4ncnc(N)c34)[nH]c12 [OSI-027] (partner 0.5 µM)
Procedure, shortened: (§1)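 Five library-drug doses in √10 steps were combined with a fixed anchor-drug dose, or a single drug was given alone, by pin tool to lung cancer cell lines in 1536-well plates the day after seeding. Nuclei were stained and counted after 5 days. Relative viability is the nuclei count in treated wells over that in vehicle wells, taken as the median of duplicate plates.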

Entinostat + Pictilisib = compound: Nc1ccccc1NC(=O)c1ccc(CNC(=O)OCc2cccnc2)cc1 [Entinostat] + CS(=O)(=O)N1CCN(Cc2cc3nc(-c4cccc5[nH]ncc45)nc(N4CCOCC4)c3s2)CC1 [Pictilisib] (partner 1 µM)
Procedure, shortened: as §1

Entinostat + Palbociclib = compound: Nc1ccccc1NC(=O)c1ccc(CNC(=O)OCc2cccnc2)cc1 [Entinostat] + CC(=O)c1c(C)c2cnc(Nc3ccc(N4CCNCC4)cn3)nc2n(C2CCCC2)c1=O [Palbociclib] (partner 0.5 µM)
Procedure, shortened: as §1

Entinostat + Foretinib = compound: Nc1ccccc1NC(=O)c1ccc(CNC(=O)OCc2cccnc2)cc1 [Entinostat] + COc1cc2c(Oc3ccc(NC(=O)C4(C(=O)Nc5ccc(F)cc5)CC4)cc3F)ccnc2cc1OCCCN1CCOCC1 [Foretinib] (partner 0.25 µM)
Procedure, shortened: as §1

Row | Cell Line | relative viability (SGI-1776 + OSI-027; first compound 0.08 µM) | relative viability (SGI-1776 + OSI-027; first compound 0.8 µM) | relative viability (SGI-1776 + OSI-027; first compound 2.53 µM) | relative viability (SGI-1776 + OSI-027; first compound 8 µM) | relative viability (Entinostat + Pictilisib; first compound 0.02 µM) | relative viability (Entinostat + Pictilisib; first compound 0.06325 µM) | relative viability (Entinostat + Pictilisib; first compound 0.2 µM) | relative viability (Entinostat + Pictilisib; first compound 0.6325 µM) | relative viability (Entinostat + Pictilisib; first compound 2 µM) | relative viability (Entinostat + Palbociclib; first compound 0.02 µM) | relative viability (Entinostat + Palbociclib; first compound 0.06325 µM) | relative viability (Entinostat + Palbociclib; first compound 0.2 µM) | relative viability (Entinostat + Palbociclib; first compound 0.6325 µM) | relative viability (Entinostat + Palbociclib; first compound 2 µM) | relative viability (Entinostat + Foretinib; first compound 0.02 µM) | relative viability (Entinostat + Foretinib; first compound 0.06325 µM) | relative viability (Entinostat + Foretinib; first compound 0.2 µM) | relative viability (Entinostat + Foretinib; first compound 0.6325 µM) | relative viability (Entinostat + Foretinib; first compound 2 µM)
1 | NCI-H1666 | 0.953 | 0.853 | 0.759 | 0.674 | 0.44 | 0.403 | 0.34 | 0.258 | 0.258 | 0.672 | 0.684 | 0.697 | 0.65 | 0.565 | 1.06 | 1.02 | 0.964 | 0.537 | 0.366
2 | NCI-H1734 | 0.686 | 0.645 | 0.615 | 0.403 | 0.454 | 0.513 | 0.459 | 0.41 | 0.289 | 0.385 | 0.375 | 0.402 | 0.347 | 0.256 | 0.883 | 0.939 | 0.929 | 0.773 | 0.603
3 | NCI-H1755 | 0.703 | 0.637 | 0.533 | 0.529 | 0.383 | 0.408 | 0.367 | 0.204 | 0.205 | 0.439 | 0.454 | 0.446 | 0.407 | 0.342 | 0.901 | 0.864 | 0.805 | 0.713 | 0.421
4 | NCI-H1793 | 0.258 | 0.253 | 0.31 | 0.223 | 0.317 | 0.333 | 0.285 | 0.235 | 0.219 | 0.329 | 0.321 | 0.263 | 0.248 | 0.189 | 0.678 | 0.753 | 0.782 | 0.472 | 0.326
5 | NCI-H1915 | 0.642 | 0.645 | 0.618 | 0.49 | 0.899 | 0.94 | 0.844 | 0.328 | 0.218 | 0.51 | 0.494 | 0.43 | 0.383 | 0.208 | 1.06 | 1.06 | 1.07 | 1 | 0.592
6 | NCI-H1944 | 0.436 | 0.428 | 0.344 | 0.342 | 0.332 | 0.398 | 0.336 | 0.268 | 0.25 | 0.301 | 0.286 | 0.234 | 0.223 | 0.176 | 1 | 0.711 | 0.472 | 0.364 | 0.218
7 | NCI-H1975 | 0.72 | 0.688 | 0.525 | 0.428 | 0.206 | 0.245 | 0.228 | 0.151 | 0.139 | 0.488 | 0.378 | 0.346 | 0.181 | 0.132 | 0.904 | 0.78 | 0.64 | 0.326 | 0.224
8 | NCI-H1993 | 0.549 | 0.52 | 0.551 | 0.525 | 0.878 | 0.876 | 0.916 | 0.888 | 0.833 | 0.653 | 0.667 | 0.725 | 0.642 | 0.273 | 0.891 | 0.686 | 0.664 | 0.618 | 0.637

— the supplement of paper PMC10307832
